Reference: patent US10028992B2, “Methods of treating muscular dystrophy” (BOARD OF REGENTS OF THE NEVADA SYSTEM OF HIGHER EDUCATION …, priority 2012, dated 2018)

System: α7 integrin promoter
Test: muscle cell-based assay: α7βgal+/− myoblasts/myotubes, LacZ reporter, β-galactosidase cleavage of FDG
Parameters: species or system mouse; Results in α7+/− β-galactosidase assay: scale not given here
Method in brief: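 Fluorescein generated from FDG by β-galactosidase reports α7 integrin promoter activity in differentiated myoblasts from α7+/− LacZ knock-in pups. Screening hits then went to dose-response, western blotting and a myostatin counterscreen.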

SMILES	Results in α7+/− β-galactosidase assay (Myotubes, 0.5 uM)	Results in α7+/− β-galactosidase assay (Myotubes, 1 uM)	Results in α7+/− β-galactosidase assay (Myotubes, 5 uM)	Results in α7+/− β-galactosidase assay (Myotubes, 10 uM)	Results in α7+/− β-galactosidase assay (Myotubes, 20 uM)	Results in α7+/− β-galactosidase assay (Myotubes, 40 uM)	Results in α7+/− β-galactosidase assay (Myoblasts, 0.5 uM)	Results in α7+/− β-galactosidase assay (Myoblasts, 1 uM)	Results in α7+/− β-galactosidase assay (Myoblasts, 5 uM)	Results in α7+/− β-galactosidase assay (Myoblasts, 10 uM)	Results in α7+/− β-galactosidase assay (Myoblasts, 20 uM)	Results in α7+/− β-galactosidase assay (Myoblasts, 40 uM)
Cc1[nH]c(/C=C2\C(=O)Nc3ccc([S+](=O)([O-])Cc4c(Cl)cccc4Cl)cc32)c(C)c1C(=O)C1CCCN1CN1CCCC1 (stereo not drawn) [drawing 517]	−0.02882	−0.08557	0.02824	−0.2838	−0.348	−0.7868	–	–	–	–	–	–
O=C1Nc2ccccc2/C1=C1/Nc2ccccc2/C1=N\O [drawing 518]	0.09617	0.05181	−0.32	−0.625	−0.3346	−0.5024	–	–	–	–	–	–
O=C(CNC(=O)c1cccc(F)c1)N/N=C/c1cc(Br)ccc1OCc1ccccc1 [drawing 519]	–	–	–	–	–	–	−0.00993	0.03356	0.1316	0.088	−0.1376	0.1351
Cc1ccccc1-n1c(S)nnc1Cc1cccs1 [drawing 520]	–	–	–	–	–	–	0.09422	0.03188	0.1364	0.3732	0.1056	0.01115
CCCCN(CC)Cc1ccc(C/N=C(\S)Nc2ccccc2F)o1 [drawing 521]	–	–	–	–	–	–	0.07412	0.014	0.01263	0.224	−0.04634	−0.1183
COc1ccc2c(c1)C(=C(C#N)C#N)C(=O)N2CCc1ccccc1 [drawing 522]	–	–	–	–	–	–	0.199	0.06668	−0.157	0.1343	−0.3414	−0.3915
Cn1cc(CN(CCO)Cc2cccs2)c(-c2ccccc2F)n1 [drawing 523]	–	–	–	–	–	–	0.1756	0.1912	−0.02798	0.2648	0.0346	−0.1208
CCN1C(=O)/C(=C(/C#N)c2nc3ccccc3[nH]2)c2ccccc21 [drawing 524]	–	–	–	–	–	–	−0.1641	−0.1562	−0.1933	−0.1296	−0.2594	−0.241
Cc1ccc2c(c1)/C(=C/c1ccc(F)cc1)C(=O)N2 [drawing 525]	–	–	–	–	–	–	0.006732	−0.03019	−0.1238	−0.2542	−0.5127	−0.7544
O=C1Nc2ccccc2/C1=C\c1ccnc2ccccc12 [drawing 526]	–	–	–	–	–	–	0.2132	0.0742	0.06287	0.1705	−0.2337	−0.1575
CCc1c(C)sc(NC(=O)c2ccco2)c1C#N [drawing 527]	–	–	–	–	–	–	0.01962	0.03303	−0.06162	−0.02233	−0.1898	−0.1237
CCc1c(C)sc(NC(=O)c2ccco2)c1C#N [drawing 528]	–	–	–	–	–	–	0.08233	0.08072	0.4585	0.07353	0.153	0.1981
O=C1Nc2ccccc2/C1=C/c1ccccc1Cl [drawing 529]	–	–	–	–	–	–	0.2214	0.2193	−0.03271	−0.1355	−0.2535	−0.6555
COc1cccc(CN2CCN(Cc3ccco3)CC2)c1.O=C(O)C(=O)O [drawing 530]	–	–	–	–	–	–	0.2392	0.1359	0.06492	−0.03174	0.218	0.2155
